Measurements published in ChEMBL document CHEMBL1201862, “PubChem BioAssay data set” (2004).
Active and inactive are the calls of the source.

What was measured:
[1] = target: Mitogen-activated protein kinase 10 (Homo sapiens, UniProt P53779); experiment: Dose response biochemical screening assay for inhibitors of c-Jun N-Terminal Kinase 3 (JNK3). [Related pubchem assays: 746 ]
Cytochrome P450 2C9 = Cytochrome P450 2C9 (Homo sapiens, UniProt P11712)
Ephrin type-A receptor 4 = Ephrin type-A receptor 4 (Mus musculus, UniProt Q03137); experiment: EphA4 ligand-binding antagonists – biochemical, colorimetric, mouse EphA4, primary screen (AID 689); format: functional
Ephrin type-A receptor 4, sequence (Q03137 whole entry, the tested form may be a part): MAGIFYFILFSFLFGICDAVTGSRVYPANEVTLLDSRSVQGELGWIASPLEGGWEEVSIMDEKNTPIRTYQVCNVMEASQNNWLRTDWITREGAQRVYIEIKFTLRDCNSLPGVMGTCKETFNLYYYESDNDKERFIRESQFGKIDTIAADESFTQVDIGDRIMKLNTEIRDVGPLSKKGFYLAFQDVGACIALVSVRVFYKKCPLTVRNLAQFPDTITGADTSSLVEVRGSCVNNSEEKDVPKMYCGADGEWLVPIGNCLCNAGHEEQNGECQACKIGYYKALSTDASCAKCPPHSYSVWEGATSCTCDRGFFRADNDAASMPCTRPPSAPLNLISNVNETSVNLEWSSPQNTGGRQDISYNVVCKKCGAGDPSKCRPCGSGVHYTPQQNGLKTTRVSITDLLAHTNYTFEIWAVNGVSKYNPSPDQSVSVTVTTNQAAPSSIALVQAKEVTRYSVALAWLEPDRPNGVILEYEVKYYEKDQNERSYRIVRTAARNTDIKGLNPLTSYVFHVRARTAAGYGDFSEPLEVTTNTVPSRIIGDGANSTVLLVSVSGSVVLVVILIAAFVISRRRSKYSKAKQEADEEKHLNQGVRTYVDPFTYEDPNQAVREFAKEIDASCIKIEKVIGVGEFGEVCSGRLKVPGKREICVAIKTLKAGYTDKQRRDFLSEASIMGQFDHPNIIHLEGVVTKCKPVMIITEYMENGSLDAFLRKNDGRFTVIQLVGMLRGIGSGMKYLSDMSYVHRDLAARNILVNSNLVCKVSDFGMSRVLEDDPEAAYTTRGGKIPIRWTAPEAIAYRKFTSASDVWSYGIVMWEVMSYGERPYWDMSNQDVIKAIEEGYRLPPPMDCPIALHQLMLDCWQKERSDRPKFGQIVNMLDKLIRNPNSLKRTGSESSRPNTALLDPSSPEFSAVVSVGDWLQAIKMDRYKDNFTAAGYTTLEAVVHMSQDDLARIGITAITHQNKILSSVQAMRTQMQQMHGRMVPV

[2] = target: T1, RNA-binding protein pos-1 (Caenorhabditis elegans, UniProt G5EF15); experiment: disruptors of C. elegans POS-1 RNA interaction – biochemical, fluorescence polarization, dose response (AID 1964);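 note: purified POS-1 fused to maltose binding protein made in E. coli; potency of compounds blocking POS-1 binding to fluorescent RNA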
T1 sequence (G5EF15 whole entry): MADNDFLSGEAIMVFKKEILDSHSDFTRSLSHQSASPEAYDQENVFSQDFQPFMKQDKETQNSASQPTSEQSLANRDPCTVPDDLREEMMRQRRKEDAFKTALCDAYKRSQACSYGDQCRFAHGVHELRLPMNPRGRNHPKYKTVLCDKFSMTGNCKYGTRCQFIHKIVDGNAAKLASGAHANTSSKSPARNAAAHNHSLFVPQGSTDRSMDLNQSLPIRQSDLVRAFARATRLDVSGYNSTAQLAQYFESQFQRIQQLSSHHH

[3] = target: T2, Zinc finger protein mex-5 (Caenorhabditis elegans, UniProt Q9XUB2); experiment: potency of MEX-5 RNA-binding blockers – biochemical, C. elegans, fluorescence polarization, dose response (AID 1960)
T2 sequence (Q9XUB2 whole entry): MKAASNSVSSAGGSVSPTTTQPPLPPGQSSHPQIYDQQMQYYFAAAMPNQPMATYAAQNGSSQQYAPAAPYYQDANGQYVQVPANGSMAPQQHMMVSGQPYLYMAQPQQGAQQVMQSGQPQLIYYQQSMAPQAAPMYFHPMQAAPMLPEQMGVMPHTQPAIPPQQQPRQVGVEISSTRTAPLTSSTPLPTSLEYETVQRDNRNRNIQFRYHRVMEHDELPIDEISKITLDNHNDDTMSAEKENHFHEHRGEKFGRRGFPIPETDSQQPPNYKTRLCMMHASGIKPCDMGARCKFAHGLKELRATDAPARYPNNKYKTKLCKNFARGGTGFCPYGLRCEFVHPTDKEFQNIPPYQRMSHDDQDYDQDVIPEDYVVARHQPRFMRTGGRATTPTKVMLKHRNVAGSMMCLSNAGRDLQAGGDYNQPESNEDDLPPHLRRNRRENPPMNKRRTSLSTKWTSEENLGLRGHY

[4] = target: T3, Heat shock factor protein 1 (Mus musculus, UniProt P38532); experiment: decrease of HSF1-responsive luciferase luminescence – cell-based, NIH3T3, dose retest, confirmation (AID 2382); format: functional;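 note: NIH3T3 fibroblasts with HSF1-driven luciferase reporter stressed by proteasome inhibitor MG132; luminescence from HSF1-driven luciferase expression after 8 hours of MG132 stress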
T3 sequence (P38532 whole entry): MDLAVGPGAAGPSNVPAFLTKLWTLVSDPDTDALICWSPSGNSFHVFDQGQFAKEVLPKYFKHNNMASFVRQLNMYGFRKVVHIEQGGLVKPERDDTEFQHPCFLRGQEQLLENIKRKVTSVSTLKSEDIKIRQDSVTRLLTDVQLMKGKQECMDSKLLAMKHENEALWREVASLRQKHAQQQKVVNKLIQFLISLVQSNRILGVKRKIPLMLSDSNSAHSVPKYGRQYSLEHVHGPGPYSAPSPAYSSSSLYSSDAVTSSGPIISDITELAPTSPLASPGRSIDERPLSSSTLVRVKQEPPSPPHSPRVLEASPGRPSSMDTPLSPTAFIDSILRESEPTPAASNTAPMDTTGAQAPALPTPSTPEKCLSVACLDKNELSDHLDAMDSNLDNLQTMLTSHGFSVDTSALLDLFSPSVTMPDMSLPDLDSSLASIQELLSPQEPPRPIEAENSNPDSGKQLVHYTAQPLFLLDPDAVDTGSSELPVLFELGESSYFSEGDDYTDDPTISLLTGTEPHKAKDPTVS

[5] = Trypanosoma cruzi growth suppression in host cells – NIH3T3 host cells, beta-gal luminescence, confirmation (AID 2044); format: functional, cell-based;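 note: intracellular parasites grown in NIH/3T3 mouse fibroblasts as host cells; luminescent beta-galactosidase reporter signal from transgenic T. cruzi replicating inside host cells; inhibitors lower the luminescence signal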
[6] = NIH3T3 cell viability loss – ATP luminescence, mouse fibroblasts, counter-screen, dose response (AID 2010); format: functional, cell-based;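 note: cells exposed to compound for about 90 hours before reading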
[7] = Luminescence Cell-Based Dose Response to Identify Activators of 5'UTR Stem-Loop Driven Prion Protein mRNA Translation in H4-C Neuroglioblastoma Cells. [Related pubchem assays: 1829 (Project Summary), 1814 (Primary HTS)]; format: functional
[8] = Luminescence Cell-Based Dose Response HTS to Identify Activators of Luciferase Translation or Activity in H4 […] Cells. [Related pubchem assays: 1829 (Project Summary), 1814 (Primary HTS)]; format: functional
H4 = experiment: Luminescence Cell-Based Dose Response HTS to Identify Activators of 5'UTR Stem-Loop Driven Prion Protein mRNA Translation in H4 Neuroglioblastoma Cells. [Related pubchem assays: 1829 (Project Summary), 1814 (Primary HTS)]; format: functional; details: Homo sapiens
[9] = Luminescence Cell-Based Dose Response to Identify Activators of Luciferase Translation or Activity in H4-C Neuroglioblastoma Cells. [Related pubchem assays: 1829 (Project Summary), 1814 (Primary HTS)]; format: functional
[10] = Luminescence Cell-Based Dose Confirmation to Identify Activators of 5'UTR Stem-Loop Driven Alpha-Synuclein mRNA Translation in H4 Neuroglioblastoma Cells. [Related pubchem assays: 1829 (Project Summary), 1814 (Primary HTS)]; format: functional
[11] = target: T4, Microphthalmia-associated transcription factor (Homo sapiens, UniProt O75030); experiment: reducers of TRPM1 reporter luminescence, concentration series – cell-based, SK-MEL-5, cherry-picked, set 3, MITF inhibitor project, dose response (AID 493073); format: functional;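 note: SK-MEL-5 melanoma cells with luciferase driven by the MITF target TRPM1 promoter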
T4 sequence (O75030 whole entry): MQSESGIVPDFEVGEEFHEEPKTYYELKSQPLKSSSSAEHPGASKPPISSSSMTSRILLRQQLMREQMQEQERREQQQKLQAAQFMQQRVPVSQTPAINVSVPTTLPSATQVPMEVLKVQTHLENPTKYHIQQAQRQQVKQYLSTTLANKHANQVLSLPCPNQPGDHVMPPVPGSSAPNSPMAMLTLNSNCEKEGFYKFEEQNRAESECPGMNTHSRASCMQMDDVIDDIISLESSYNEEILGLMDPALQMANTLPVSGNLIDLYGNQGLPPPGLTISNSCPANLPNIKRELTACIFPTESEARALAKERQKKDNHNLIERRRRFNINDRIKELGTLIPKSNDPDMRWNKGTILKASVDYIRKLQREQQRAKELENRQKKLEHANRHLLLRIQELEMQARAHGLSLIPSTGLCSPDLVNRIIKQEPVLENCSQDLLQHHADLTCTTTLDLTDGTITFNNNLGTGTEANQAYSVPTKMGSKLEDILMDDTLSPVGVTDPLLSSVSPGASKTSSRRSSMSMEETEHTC

[12] = A549 cell cytotoxicity, dose response, cytotoxicity control, plate reader, cherry-pick, antagonist series (AID 743412); format: functional, cell-based
[13] = toxicity toward HepG2 liver cells – cell-based, plate reader, cherry-pick, antagonist series, cytotoxicity control, dose response (AID 743416); format: functional
[14] = viability loss in HEK293 cells – cell-based, plate reader, cherry-picked samples, cytotoxicity control, dose response (AID 743446); format: functional
Cytochrome P450 1A2 = target: T5, Cytochrome P450 1A2 (Homo sapiens, UniProt P05177);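 note: PubChem cytochrome P450 panel assay, CYP1A2 panel member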
T5 sequence (P05177 whole entry): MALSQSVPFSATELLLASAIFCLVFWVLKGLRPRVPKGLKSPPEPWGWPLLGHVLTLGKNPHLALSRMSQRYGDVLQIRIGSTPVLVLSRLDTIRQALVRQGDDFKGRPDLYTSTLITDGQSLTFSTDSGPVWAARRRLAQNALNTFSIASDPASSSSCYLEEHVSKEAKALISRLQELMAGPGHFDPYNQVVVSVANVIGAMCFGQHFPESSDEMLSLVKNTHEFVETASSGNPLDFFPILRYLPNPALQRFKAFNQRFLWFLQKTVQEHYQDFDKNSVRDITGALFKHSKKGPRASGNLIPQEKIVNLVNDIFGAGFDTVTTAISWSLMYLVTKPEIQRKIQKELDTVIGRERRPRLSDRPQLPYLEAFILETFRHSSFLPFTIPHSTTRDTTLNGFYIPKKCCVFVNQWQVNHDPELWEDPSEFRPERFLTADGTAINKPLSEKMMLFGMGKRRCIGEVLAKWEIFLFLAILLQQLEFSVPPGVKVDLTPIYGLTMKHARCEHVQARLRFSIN

Cytochrome P450 3A4 = Cytochrome P450 3A4 (Homo sapiens, UniProt P08684);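 note: CYP3A4 tested as one member of a cytochrome P450 panel screen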
[15] = M. tuberculosis growth inhibition, HTS (AID 449762); format: functional
[16] = Luminescence Cell-Based Dose Retest to Confirm Inhibitors of Cancer Stem Cells. [Related pubchem assays (depositor defined):AID2717, AID2721]; format: functional; details: Homo sapiens
Large T antigen = Large T antigen (Simian virus 40, UniProt P03070); format: functional, Betapolyomavirus macacae;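 note: Confirmatory-stage PubChem screen for compounds that inhibit SV40 T antigen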
Large T antigen, sequence (P03070 whole entry): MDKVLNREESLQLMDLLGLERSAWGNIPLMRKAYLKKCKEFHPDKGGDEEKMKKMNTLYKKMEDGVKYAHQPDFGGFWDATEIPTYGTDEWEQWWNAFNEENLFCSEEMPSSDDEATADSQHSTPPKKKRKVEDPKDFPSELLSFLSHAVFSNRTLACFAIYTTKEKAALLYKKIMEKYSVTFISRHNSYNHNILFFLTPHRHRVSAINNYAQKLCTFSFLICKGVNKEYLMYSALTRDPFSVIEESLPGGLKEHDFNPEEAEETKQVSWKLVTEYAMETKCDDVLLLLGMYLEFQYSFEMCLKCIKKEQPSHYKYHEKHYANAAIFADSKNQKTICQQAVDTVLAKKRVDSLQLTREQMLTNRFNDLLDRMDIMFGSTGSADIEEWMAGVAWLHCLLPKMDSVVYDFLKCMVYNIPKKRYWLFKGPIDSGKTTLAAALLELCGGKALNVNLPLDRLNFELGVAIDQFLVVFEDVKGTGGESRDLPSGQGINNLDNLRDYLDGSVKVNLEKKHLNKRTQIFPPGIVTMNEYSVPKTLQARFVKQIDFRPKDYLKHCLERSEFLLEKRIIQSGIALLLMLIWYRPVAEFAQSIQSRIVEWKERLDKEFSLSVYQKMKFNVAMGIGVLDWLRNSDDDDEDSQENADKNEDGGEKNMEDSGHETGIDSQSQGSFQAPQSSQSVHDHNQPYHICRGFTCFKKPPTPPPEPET

[17] = target: Bifunctional protein GlmU (Mycobacterium tuberculosis, UniProt P9WMN3); experiment: Inhibitors of Mycobacterial Glucosamine-1-phosphate acetyl transferase (GlmU). Secondary screen.; parameters: species or system Mycobacterium tuberculosis H37Rv
Bifunctional protein GlmU, sequence (P9WMN3 whole entry): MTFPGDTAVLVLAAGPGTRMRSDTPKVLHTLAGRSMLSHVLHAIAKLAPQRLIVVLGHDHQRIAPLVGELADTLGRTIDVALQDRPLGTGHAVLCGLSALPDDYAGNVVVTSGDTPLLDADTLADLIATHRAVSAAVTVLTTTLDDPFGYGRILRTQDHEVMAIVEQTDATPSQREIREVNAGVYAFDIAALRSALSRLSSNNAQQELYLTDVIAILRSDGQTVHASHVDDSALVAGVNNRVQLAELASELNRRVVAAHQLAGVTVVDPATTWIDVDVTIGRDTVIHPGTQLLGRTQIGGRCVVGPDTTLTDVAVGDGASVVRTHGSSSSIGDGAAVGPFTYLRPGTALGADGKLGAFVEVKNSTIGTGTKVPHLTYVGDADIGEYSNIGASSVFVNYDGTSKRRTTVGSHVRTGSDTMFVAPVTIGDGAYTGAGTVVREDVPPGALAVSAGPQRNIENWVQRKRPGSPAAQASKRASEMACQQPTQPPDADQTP

[18] = target: Induced myeloid leukemia cell differentiation protein Mcl-1 (Homo sapiens, UniProt Q07820); format: functional
Induced myeloid leukemia cell differentiation protein Mcl-1, sequence (Q07820 whole entry): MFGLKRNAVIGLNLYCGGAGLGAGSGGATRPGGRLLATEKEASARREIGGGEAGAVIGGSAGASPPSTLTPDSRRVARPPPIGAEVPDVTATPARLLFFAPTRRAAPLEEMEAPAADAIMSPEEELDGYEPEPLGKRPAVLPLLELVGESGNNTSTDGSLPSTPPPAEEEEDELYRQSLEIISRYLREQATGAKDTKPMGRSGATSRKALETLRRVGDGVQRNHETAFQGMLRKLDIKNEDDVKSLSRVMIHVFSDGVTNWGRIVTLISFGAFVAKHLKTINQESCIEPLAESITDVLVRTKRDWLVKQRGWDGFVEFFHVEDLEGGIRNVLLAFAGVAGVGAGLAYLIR

[19] = target: Eukaryotic translation initiation factor 4E (Mus musculus, UniProt P63073); experiment: blockers of eIF4G binding by eIF4E – biochemical, TR-FRET, dose response (AID 855); format: functional;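 note: potency for disrupting eIF4E binding to eIF4GI seen as loss of FRET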
Kallikrein-7 = Kallikrein-7 (Homo sapiens, UniProt P49862); experiment: Fluorescence Intensity-based biochemical primary high throughput dose response assay to identify activators of kallikrein-7 (K7) zymogen.
Kallikrein-7, sequence (P49862 whole entry): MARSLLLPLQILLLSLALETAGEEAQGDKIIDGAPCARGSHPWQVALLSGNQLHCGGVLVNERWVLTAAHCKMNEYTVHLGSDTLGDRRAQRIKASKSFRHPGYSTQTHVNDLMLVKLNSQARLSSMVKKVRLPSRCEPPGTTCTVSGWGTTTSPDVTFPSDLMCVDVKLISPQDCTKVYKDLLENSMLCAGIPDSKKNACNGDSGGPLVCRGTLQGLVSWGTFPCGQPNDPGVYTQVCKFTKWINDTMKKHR

Genome polyprotein = Genome polyprotein (dengue virus type 2, UniProt P29990); experiment: flavivirus cap methylation enzyme inhibition – biochemical, confirmation dose response, primary screen (AID 588689); format: functional
[20] = target: Ras and Rab interactor 1/Tyrosine-protein kinase ABL1 (Homo sapiens, UniProt P00519+Q13671); format: functional;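 note: biochemical TR-FRET dose-response test measuring inhibition of binding between Rin1 and Abl proteins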
Caspase-6 = Caspase-6 (Homo sapiens, UniProt P55212); experiment: inhibition of CASP6 peptide cleavage – biochemical, VEID-R110 fluorescence, cherry-pick, dose response (AID 720632)
Caspase-6, sequence (P55212 24-179 limits assumed): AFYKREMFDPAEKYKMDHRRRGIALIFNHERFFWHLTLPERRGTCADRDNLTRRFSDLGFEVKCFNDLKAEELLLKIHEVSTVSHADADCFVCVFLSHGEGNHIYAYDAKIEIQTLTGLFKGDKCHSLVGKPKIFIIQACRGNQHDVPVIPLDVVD
Caspase-6, sequence (P55212 194-293 limits assumed): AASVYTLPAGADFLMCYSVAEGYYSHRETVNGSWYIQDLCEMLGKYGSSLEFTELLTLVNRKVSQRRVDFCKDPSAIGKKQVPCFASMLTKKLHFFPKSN

[21] = target: G-protein coupled receptor 183 (Homo sapiens, UniProt P32249); experiment: SAR confirmation of small molecule antagonists of the EBI2 receptor via a luminescent beta-arrestin assa.; format: functional
G-protein coupled receptor 183, sequence (P32249 whole entry): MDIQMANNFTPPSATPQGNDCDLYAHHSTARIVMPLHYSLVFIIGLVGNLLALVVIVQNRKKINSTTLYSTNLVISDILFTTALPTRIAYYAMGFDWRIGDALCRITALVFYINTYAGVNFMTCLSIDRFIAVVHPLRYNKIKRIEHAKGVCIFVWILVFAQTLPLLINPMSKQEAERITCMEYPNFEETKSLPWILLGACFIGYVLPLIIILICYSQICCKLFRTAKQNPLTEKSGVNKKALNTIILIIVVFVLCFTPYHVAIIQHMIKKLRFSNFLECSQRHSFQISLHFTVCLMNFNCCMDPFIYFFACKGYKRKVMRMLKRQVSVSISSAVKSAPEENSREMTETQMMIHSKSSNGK

[22] = target: RNA-editing ligase 1, mitochondrial (Trypanosoma brucei brucei, UniProt P86926); experiment: inhibition of trypanosome RNA editing ligase – biochemical, fluorescence, Trypanosoma brucei, dose response (AID 1117295); format: functional
RNA-editing ligase 1, mitochondrial, sequence (P86926 whole entry): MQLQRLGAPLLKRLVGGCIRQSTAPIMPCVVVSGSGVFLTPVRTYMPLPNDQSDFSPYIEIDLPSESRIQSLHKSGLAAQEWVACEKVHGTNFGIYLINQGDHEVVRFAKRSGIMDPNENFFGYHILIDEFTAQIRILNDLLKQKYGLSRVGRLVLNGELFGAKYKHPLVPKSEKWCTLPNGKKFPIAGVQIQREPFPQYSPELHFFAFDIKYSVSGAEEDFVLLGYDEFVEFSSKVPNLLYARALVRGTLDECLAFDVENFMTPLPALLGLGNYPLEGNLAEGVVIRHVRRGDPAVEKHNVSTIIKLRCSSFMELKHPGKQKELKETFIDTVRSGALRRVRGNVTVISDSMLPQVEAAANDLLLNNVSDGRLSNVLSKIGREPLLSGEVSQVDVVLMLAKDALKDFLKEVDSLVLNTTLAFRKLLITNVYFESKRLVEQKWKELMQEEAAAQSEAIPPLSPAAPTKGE

Mitogen-activated protein kinase 10, sequence (P53779 whole entry): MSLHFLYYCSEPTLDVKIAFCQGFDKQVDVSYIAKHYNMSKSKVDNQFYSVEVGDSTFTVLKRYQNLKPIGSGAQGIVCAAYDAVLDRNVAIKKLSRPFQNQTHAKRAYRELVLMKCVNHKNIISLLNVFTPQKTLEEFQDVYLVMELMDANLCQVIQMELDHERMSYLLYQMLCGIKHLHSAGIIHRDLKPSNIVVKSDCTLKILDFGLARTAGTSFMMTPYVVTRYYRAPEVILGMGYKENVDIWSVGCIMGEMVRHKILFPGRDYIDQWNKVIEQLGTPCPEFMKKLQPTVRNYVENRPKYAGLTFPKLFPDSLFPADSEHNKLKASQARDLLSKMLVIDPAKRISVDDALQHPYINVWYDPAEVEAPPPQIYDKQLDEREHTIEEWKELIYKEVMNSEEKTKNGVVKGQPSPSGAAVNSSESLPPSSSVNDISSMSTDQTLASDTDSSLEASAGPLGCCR
Cytochrome P450 2C9, sequence (P11712 whole entry): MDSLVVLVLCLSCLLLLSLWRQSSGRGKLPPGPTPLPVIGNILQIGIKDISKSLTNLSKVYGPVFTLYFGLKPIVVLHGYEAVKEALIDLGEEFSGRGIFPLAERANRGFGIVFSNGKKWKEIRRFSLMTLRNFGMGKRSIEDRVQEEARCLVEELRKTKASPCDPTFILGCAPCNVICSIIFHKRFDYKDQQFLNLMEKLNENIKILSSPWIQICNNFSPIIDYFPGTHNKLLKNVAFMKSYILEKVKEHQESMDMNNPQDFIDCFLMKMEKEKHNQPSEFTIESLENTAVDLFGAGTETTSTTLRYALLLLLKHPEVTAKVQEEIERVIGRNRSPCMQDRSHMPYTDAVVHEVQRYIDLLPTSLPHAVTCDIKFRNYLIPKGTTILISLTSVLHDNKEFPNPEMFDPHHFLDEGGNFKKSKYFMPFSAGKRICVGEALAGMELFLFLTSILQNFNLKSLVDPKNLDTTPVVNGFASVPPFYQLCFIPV

Nc1nc(-c2ccccc2)cc(-c2ccccc2O)n1
IC50 [1]: 40.6 µM (not active) | AC50 (Cytochrome P450 2C9): 3.55 µM (inconclusive)

CC(=O)Nc1ccc(NC2=Nc3ccccc3N3C2=Nc2c(c(C)nn2-c2ccccc2)C3c2ccccc2)cc1 (configuration not stated)
IC50 (Ephrin type-A receptor 4): 16.6 µM (active)

N#Cc1c(N)nc(SCc2ccncc2)c(C#N)c1-c1cccs1
EC50 [2]: > 300 µM (not active) | EC50 [3]: > 300 µM (not active) | EC50 [4]: > 195 µM (not active) | EC50 [5]: 0.145 µM (active) | EC50 [6]: 17.1 µM (active) | IC50 [1]: 54.8 µM (not active)

O=c1cccccc1NN=C1CCCCCC1
EC50 [7]: 0.608 µM (active) | EC50 [8]: < 0.1 µM (active) | EC50 (H4): > 120 µM (not active) | EC50 [9]: 0.385 µM (active) | EC50 [10]: 0.446 µM (active)

O=C(Cn1ncc(Cl)c(Cl)c1=O)N1CCOCC1
AC50 [11]: 9.82 µM (active) | AC50 [12]: 38 µM (active) | AC50 [13]: 34.4 µM (active) | AC50 [14]: 13.7 µM (active)

COc1cc(/C=C2\SC(=S)N(Nc3ccccc3)C2=O)cc(OC)c1OC
IC50 (Ephrin type-A receptor 4): 2.64 µM (active) | AC50 (Cytochrome P450 1A2): 7.08 µM (inconclusive) | AC50 (Cytochrome P450 3A4): 15.8 µM (inconclusive)

CCCCCCSc1nsc(NC(=O)CC(C)C)n1
IC50 [15]: > 100 µM (active) | AC50 [16]: 2.02 µM (active)

O=C1C(=Cc2ccc(Br)o2)C(=O)c2ccccc21
IC50 (Large T antigen): 93.7 µM (active) | IC50 [17]: 18.5 µM (active) | IC50 [18]: 1.92 µM (active) | IC50 [19]: 20.1 µM (active)

O=C(O)CCC(=O)NN1C(=O)c2ccccc2NC1c1ccco1 (configuration not stated)
EC50 (Kallikrein-7): > 69.5 µM (inactive)

O=C(Nc1ccc(Cl)cc1)c1ccc(OCC2CCCO2)cc1 (configuration not stated)
EC50 [7]: 0.924 µM (active) | EC50 [9]: 0.301 µM (active) | EC50 [10]: > 12 µM (not active)

Oc1ccc(/C=N/N2CCCCC2)c(O)c1O
EC50 [2]: 20.3 µM (active) | EC50 [3]: > 300 µM (inconclusive) | IC50 (Genome polyprotein): > 100 µM (active) | IC50 [20]: > 73.5 µM (inactive) | AC50 (Caspase-6): 24.2 µM (active)

Cc1ccccc1NC(=O)COC(=O)COc1ccc2ccc(=O)oc2c1
EC50 (Kallikrein-7): 31.9 µM (inactive)

COc1cccc(C#Cc2ccc([C@@H]3[C@@H](CO)N(C(=O)C4CCC4)[C@H]3C#N)cc2)c1
AC50 [12]: 30.9 µM (active) | AC50 [13]: 26.8 µM (active) | AC50 [14]: 46.8 µM (active)

Cc1nnc(N/N=C/c2cccc(C(F)(F)F)c2)n1N
AC50 (Caspase-6): 34.8 µM (active)

N#Cc1ccc(C(=O)N2CCN(C(=O)/C=C/c3ccc(Br)cc3)CC2)cc1
IC50 [21]: 0.00174 µM (active)

O=C(/C=C/c1ccc(F)cc1)N1CCN(S(=O)(=O)c2cccc(Br)c2)CC1
IC50 [21]: 0.0175 µM (active)

CC(C)C[C@H](NC1(C(=O)NC2CCCCC2)CCN(C)CC1)C(=O)NCC(c1ccccc1)c1ccccc1
IC50 [22]: > 96.6 µM (inactive)

COC(=O)C1=C(C)N(Cc2ccccc2C(F)(F)F)C(NCc2ccc3c(c2)OCO3)=NC1c1ccccc1 (configuration not stated)
IC50 [22]: > 96.6 µM (inactive)

Nc1ccc2c(c1)Cc1ccccc1-2
IC50 (Large T antigen): 3.52 µM (active) | IC50 [15]: > 100 µM (active)
